In patent US10501466B2, “WDR5 inhibitors and modulators” (Vanderbilt University, priority 2017, dated 2019):

Key:
[1] = molecular target: WDR5 (Homo sapiens (Human), UniProt P61964); conditions: FPA and TR-FRET binding affinity, WDR5 WIN-site
[2] = system: MV4,11 human leukemia cells; test: cells; conditions: MV4-11, 168 h
Method: Anti-Proliferative Activity Using MLL-Harboring and Non-MLL Cell Lines.
Viability assays are performed by dispensing 5,000 cells into each well of an opaque 96-well plate and adding compounds at the indicated concentrations in a final volume of 100 μL and a final concentration of DMSO of 0.1% for all samples. After a set incubation period, either a 3 day or 7 day protocol, the viability of cells in each well is assessed using the CellTiter-Glo assay (Promega), read on a GloMax 96 Microplane Luminometer (Promega). Serial dilutions of each cell type are included in all assays to generate standard curves and determine assay measurements are taken within the dynamic range of the instrument. GI50 values are calculated based on three biological replicates, each with three technical replicates. Data are expressed as mean plus/minus S.E.M.

Ki [1] [nM] | Compound | GI50 [2] [nM]
693 | COc1cccc(C(=O)N(CC2CC2)C2CCc3ccc(-c4cn5c(n4)CCC5)cc32)c1 (stereo not drawn) [Example B1, N-(cyclopropylmethyl)-N-(6-(6,7-dihydro-5H-pyrrolo[1,2-a]imidazol-2-yl)-2,3-dihydro-1H-inden-1-yl)-3-methoxybenzamide] | 
1380 | Cc1ccc(C(=O)NC2CCc3ccc(-c4cn5c(n4)CCC5)cc32)cc1C(F)(F)F (stereo not drawn) [Example B2, N-(6-(6,7-dihydro-5H-pyrrolo[1,2-a]imidazol-2-yl)-2,3-dihydro-1H-inden-1-yl)-4-methyl-3-(trifluoromethyl)benzamide] | 
19.1 | CCOc1cccc(C(=O)NC2CCc3ccc(-c4cn5c(n4)CCC5)cc32)c1 (stereo not drawn) [Example B4, N-(6-(6,7-dihydro-5H-pyrrolo[1,2-a]imidazol-2-yl)-2,3-dihydro-1H-inden-1-yl)-3-ethoxybenzamide] | 
27 | COc1cc(C)cc(C(=O)NC2CCc3ccc(-c4cn5c(n4)CCC5)cc32)c1 (stereo not drawn) [Example B5, N-(6-(6,7-dihydro-5H-pyrrolo[1,2-a]imidazol-2-yl)-2,3-dihydro-1H-inden-1-yl)-3-methoxy-5-methylbenzamide] | 
33 | CC(=O)N1CCCC(C(=O)NC2CCc3ccc(-c4cn5c(n4)CCC5)cc32)C1 (stereo not drawn) [Example B7, 1-acetyl-N-(6-(6,7-dihydro-5H-pyrrolo[1,2-a]imidazol-2-yl)-2,3-dihydro-1H-inden-1-yl)piperidine-3-carboxamide] | 
21 | CCC(=O)N1CCCC(C(=O)NC2CCc3ccc(-c4cn5c(n4)CCC5)cc32)C1 (stereo not drawn) [Example B8, N-(6-(6,7-dihydro-5H-pyrrolo[1,2-a]imidazol-2-yl)-2,3-dihydro-1H-inden-1-yl)-1-propionylpiperidine-3-carboxamide] | 
90 | O=C(NC1CCc2ccc(-c3cn4c(n3)CCC4)cc21)C1CCCN(C(=O)CC(F)(F)F)C1 (stereo not drawn) [Example B9, N-(6-(6,7-dihydro-5H-pyrrolo[1,2-a]imidazol-2-yl)-2,3-dihydro-1H-inden-1-yl)-1-(3,3,3-trifluoropropanoyl)piperidine-3-carboxamide] | 
70.9 | CC(C)C(=O)N1CCCC(C(=O)NC2CCc3ccc(-c4cn5c(n4)CCC5)cc32)C1 (stereo not drawn) [Example B10, N-(6-(6,7-dihydro-5H-pyrrolo[1,2-a]imidazol-2-yl)-2,3-dihydro-1H-inden-1-yl)-1-isobutyrylpiperidine-3-carboxamide] | 
 | O=C(Cc1ccc(Cl)c(Cl)c1)N[C@@H]1CCc2ccc(-c3cn4c(n3)CCC4)cc21 [Example B11, (R)-2-(3,4-dichlorophenyl)-N-(6-(6,7-dihydro-5H-pyrrolo[1,2-a]imidazol-2-yl)-2,3-dihydro-1H-inden-1-yl)acetamide] | 8890
 | COc1cc(C(=O)N[C@@H]2CCc3ccc(-c4cn5c(n4)CCC5)cc32)ccc1C [Example B12, (R)—N-(6-(6,7-dihydro-5H-pyrrolo[1,2-a]imidazol-2-yl)-2,3-dihydro-1H-inden-1-yl)-3-methoxy-4-methylbenzamide] | 17200
17.4 | CC(=O)N1CCCC(C(=O)N[C@@H]2CCc3ccc(-c4cn5c(n4)CCC5)cc32)C1 (stereo partly drawn) [Example B13, 1-acetyl-N—((R)-6-(6,7-dihydro-5H-pyrrolo[1,2-a]imidazol-2-yl)-2,3-dihydro-1H-inden-1-yl)piperidine-3-carboxamide] | 
 | COc1cc(C(=O)N[C@@H]2CCCc3ccc(-c4cn5c(n4)CCC5)cc32)ccc1C [Example B14, (R)—N-(7-(6,7-dihydro-5H-pyrrolo[1,2-a]imidazol-2-yl)-1,2,3,4-tetrahydronaphthalen-1-yl)-3-methoxy-4-methylbenzamide] | 22300
2.37 | O=C(Cc1ccc(Cl)c(F)c1)N[C@@H]1CCc2ccc(-c3cn4c(n3)CCC4)cc21 [Example B15, (R)-2-(4-chloro-3-fluorophenyl)-N-(6-(6,7-dihydro-5H-pyrrolo[1,2-a]imidazol-2-yl)-2,3-dihydro-1H-inden-1-yl)acetamide] | 
7.16 | CCC(=O)N1CCCC(C(=O)N[C@@H]2CCc3ccc(-c4cn5c(n4)CCC5)cc32)C1 (stereo partly drawn) [Example B16, N—((R)-6-(6,7-dihydro-5H-pyrrolo[1,2-a]imidazol-2-yl)-2,3-dihydro-1H-inden-1-yl)-1-propionylpiperidine-3-carboxamide] | 
36.2 | CC(=O)N1CCCC(C(=O)N[C@@H]2CCCc3ccc(-c4cn5c(n4)CCC5)cc32)C1 (stereo partly drawn) [Example B17, 1-acetyl-N—((R)-7-(6,7-dihydro-5H-pyrrolo[1,2-a]imidazol-2-yl)-1,2,3,4-tetrahydronaphthalen-1-yl)piperidine-3-carboxamide] | 
14.3 | CCC(=O)N1CCCC(C(=O)N[C@@H]2CCCc3ccc(-c4cn5c(n4)CCC5)cc32)C1 (stereo partly drawn) [Example B18, N—((R)-7-(6,7-dihydro-5H-pyrrolo[1,2-a]imidazol-2-yl)-1,2,3,4-tetrahydronaphthalen-1-yl)-1-propionylpiperidine-3-carboxamide] | 
172 | COc1ccc(C(=O)N[C@@H]2CCc3ccc(-c4cn5c(n4)CCC5)cc32)cn1 [Example B19, (R)—N-(6-(6,7-dihydro-5H-pyrrolo[1,2-a]imidazol-2-yl)-2,3-dihydro-1H-inden-1-yl)-6-methoxynicotinamide] | 
95.6 | O=C(N[C@@H]1CCc2ccc(-c3cn4c(n3)CCC4)cc21)c1ccnc(Cl)c1 [Example B20, (R)-2-chloro-N-(6-(6,7-dihydro-5H-pyrrolo[1,2-a]imidazol-2-yl)-2,3-dihydro-1H-inden-1-yl)isonicotinamide] | 
22.9 | Cc1cnc(Cl)c(C(=O)N[C@@H]2CCc3ccc(-c4cn5c(n4)CCC5)cc32)c1 [Example B21, (R)-2-chloro-N-(6-(6,7-dihydro-5H-pyrrolo[1,2-a]imidazol-2-yl)-2,3-dihydro-1H-inden-1-yl)-5-methylnicotinamide] | 
426 | Cc1cc(C(=O)N[C@@H]2CCc3ccc(-c4cn5c(n4)CCC5)cc32)cc(=O)[nH]1 [Example B22, (R)—N-(6-(6,7-dihydro-5H-pyrrolo[1,2-a]imidazol-2-yl)-2,3-dihydro-1H-inden-1-yl)-6-methyl-2-oxo-1,2-dihydropyridine-4-carboxamide] | 
769 | Cc1cc(Cl)nc(C(=O)N[C@@H]2CCc3ccc(-c4cn5c(n4)CCC5)cc32)c1 [Example B23, (R)-6-chloro-N-(6-(6,7-dihydro-5H-pyrrolo[1,2-a]imidazol-2-yl)-2,3-dihydro-1H-inden-1-yl)-4-methylpicolinamide] | 
710 | Cc1ccc(C(=O)N[C@@H]2CCc3ccc(-c4cn5c(n4)CCC5)cc32)cc1O [Example B25, (R)—N-(6-(6,7-dihydro-5H-pyrrolo[1,2-a]imidazol-2-yl)-2,3-dihydro-1H-inden-1-yl)-3-hydroxy-4-methylbenzamide] | 
18.5 | COc1cncc(C(=O)N[C@@H]2CCc3ccc(-c4cn5c(n4)CCC5)cc32)c1 [Example B26, (R)—N-(6-(6,7-dihydro-5H-pyrrolo[1,2-a]imidazol-2-yl)-2,3-dihydro-1H-inden-1-yl)-5-methoxynicotinamide] | 
730 | CC(=O)Nc1cc(C(=O)N[C@@H]2CCc3ccc(-c4cn5c(n4)CCC5)cc32)ccc1C [Example B27, (R)-3-acetamido-N-(6-(6,7-dihydro-5H-pyrrolo[1,2-a]imidazol-2-yl)-2,3-dihydro-1H-inden-1-yl)-4-methylbenzamide] | 
169 | Cc1ccc(C(=O)N[C@@H]2CCc3ccc(-c4cn5c(n4)CCC5)cc32)c(Cl)n1 [Example B28, (R)-2-chloro-N-(6-(6,7-dihydro-5H-pyrrolo[1,2-a]imidazol-2-yl)-2,3-dihydro-1H-inden-1-yl)-6-methylnicotinamide] | 
 | COc1cc(C(=O)N[C@@H]2CCc3ccc(-c4cn5c(n4)CCC5)cc32)cc(OC)c1C [Example B29, (R)—N-(6-(6,7-dihydro-5H-pyrrolo[1,2-a]imidazol-2-yl)-2,3-dihydro-1H-inden-1-yl)-3,5-dimethoxy-4-methylbenzamide] | 7250
3750 | O=C(N[C@@H]1CCc2ccc(-c3cn4c(n3)CCC4)cc21)c1ccncc1F [Example B30, (R)—N-(6-(6,7-dihydro-5H-pyrrolo[1,2-a]imidazol-2-yl)-2,3-dihydro-1H-inden-1-yl)-3-fluoroisonicotinamide] | 
835 | O=C(N[C@@H]1CCc2ccc(-c3cn4c(n3)CCC4)cc21)c1ccc(=O)[nH]c1 [Example B31, (R)—N-(6-(6,7-dihydro-5H-pyrrolo[1,2-a]imidazol-2-yl)-2,3-dihydro-1H-inden-1-yl)-6-oxo-1,6-dihydropyridine-3-carboxamide] | 
568 | O=C(N[C@@H]1CCc2ccc(-c3cn4c(n3)CCC4)cc21)c1cncc(F)c1 [Example B32, (R)—N-(6-(6,7-dihydro-5H-pyrrolo[1,2-a]imidazol-2-yl)-2,3-dihydro-1H-inden-1-yl)-5-fluoronicotinamide] | 
22.2 | COc1cc(C(=O)N[C@@H]2CCN(C(C)=O)c3ccc(-c4cn5c(n4)CCC5)cc32)ccc1C [Example B33, (R)—N-(1-acetyl-6-(6,7-dihydro-5H-pyrrolo[1,2-a]imidazol-2-yl)-1,2,3,4-tetrahydroquinolin-4-yl)-3-methoxy-4-methylbenzamide] | 
